A word on the melting point: it is the temperature, or range, at which the solid turns liquid. `O=c1c2c(Cc3ccccc3)n[nH]c2c2cccnc2n1-c1cccc(OC(F)(F)F)c1` (hydrate or solvate) [Example 1, 3-Benzyl-5-(3-trifluoromethoxyphenyl)-1H-pyrazolo[4,3-c][1,8]-naphthyridin-4(5H)-one] gave a melting point of 249 to 251 °C.

`O=c1c2c(Cc3ccccc3[N+](=O)[O-])n[nH]c2c2cccnc2n1-c1cccc(OC(F)(F)F)c1` (hydrate or solvate) [Example 35, 3-(2-Nitrobenzyl)-5-(3-trifluoromethoxyphenyl)-1H-pyrazolo[4,3-c][1,8]-naphthyridin-4(5H)-one] registered a melting point of 274 to 276 °C.

Consider `O=c1c2c(Cc3cccc(OC(F)(F)F)c3)n[nH]c2c2cccnc2n1-c1cccc(OC(F)(F)F)c1` [Example 27, 3-(3-Trifluoromethoxybenzyl)-5-(3-trifluoromethoxyphenyl)-1H-pyrazolo[4,3-c][1,8]naphthyridin-4(5H)-one], for which the melting point is 174 to 177 °C.

On to `CC(c1ccccc1)c1n[nH]c2c1c(=O)n(-c1ccccc1)c1ncccc21` (stereo not drawn) (hydrate or solvate) [Example 11, 5-Phenyl-3-(1-phenylethyl)-1H-pyrazolo[4,3-c][1,8]naphthyridin-4(5H)-one], for which the melting point is 267 to 268 °C.

Compound `O=c1c2c(Cc3ccc(C(F)(F)F)cc3)n[nH]c2c2cccnc2n1-c1cccc(OC(F)(F)F)c1` [Example 25, 5-(3-Trifluoromethoxyphenyl)-3-(4-trifluoromethylbenzyl)-1H-pyrazolo[4,3-c][1,8]naphthyridin-4(5H)-one] had a melting point of 227 to 231 °C.

Turning to `O=c1c2c(Cc3ccccc3)n[nH]c2c2ccccc2n1-c1ccccc1` [Example 16, 3-Benzyl-5-phenyl-1H-pyrazolo[4,3-c]quinolin-4(5H)-one], the melting point was in the range of 255 to 257 °C.

In turn, `O=c1c2c(CC3CCOCC3)n[nH]c2c2cccnc2n1-c1ccccc1` (hydrate or solvate) [Example 44, 5-Phenyl-3-(tetrahydro-2H-pyran-4-ylmethyl)-1H-pyrazolo[4,3-c][1,8]naphthyridin-4(5H)-one] had a melting point of 228 to 234 °C.

In the case of `O=c1c2c(Cc3ccsc3)n[nH]c2c2cccnc2n1-c1cccc(OC(F)(F)F)c1` [Example 46, 3-(3-Thienylmethyl)-5-(3-trifluoromethoxyphenyl)-1H-pyrazolo[4,3-c][1,8]-naphthyridin-4(5H)-one], the melting point fell in the range of 247 to 251 °C.

Regarding `O=c1c2c(CCCCCCc3ccccc3)n[nH]c2c2cccnc2n1-c1ccccc1` [Example 12, 5-Phenyl-3-(6-phenylhexyl)-1H-pyrazolo[4,3-c][1,8]naphthyridin-4(5H)-one], the melting point was 150 to 151 °C.

`COCc1n[nH]c2c1c(=O)n(-c1ccccc1)c1ncccc21` (hydrate or solvate) [Example 10, 3-(Methoxymethyl)-5-phenyl-1H-pyrazolo[4,3-c][1,8]naphthyridin-4(5H)-one] yielded a melting point of 263 to 265 °C.

In turn, `O=c1c2c(Cc3ccc(OC(F)(F)F)cc3)n[nH]c2c2cccnc2n1-c1cccc(C(F)(F)F)c1` [Example 22, 3-(4-Trifluoromethoxybenzyl)-5-(3-trifluoromethylphenyl)-1H-pyrazolo[4,3-c][1,8]naphthyridin-4(5H)-one] showed a melting point of 134 to 137 °C.

As to `O=c1c2c(Cc3ccccc3C(F)(F)F)n[nH]c2c2cccnc2n1-c1cccc(C(F)(F)F)c1` [Example 17, 3-(2-Trifluoromethylbenzyl)-5-(3-trifluoromethylphenyl)-1H-pyrazolo[4,3-c][1,8]naphthyridin-4(5H)-one], the melting point fell in the range of 260 to 264 °C.

The values are drawn from patent US8193356B2, “Heterocycle compound, and production process and application thereof” (Aska Pharmaceutical Co., Ltd., priority 2005, dated 2012).
